# Laboratory results as given in paper PMC9607427, “Novel 7-Chloro-(4-thioalkylquinoline) Derivatives: Synthesis and Antiproliferative Activity through Inducing Apoptosis and DNA/RNA Damage” (Pharmaceuticals, 2022).
# Tests used:
# Format in all cases: cell-based, human
# [1] = system: A549 (lung adenocarcinoma); assay: Cytotoxic MTS assay, A549
# Method in brief: (§1)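 Compounds in DMSO are dispensed at time zero onto cells at 25,000–35,000 cells/mL. After 72 h incubation, MTS is added for 1–4 h and optical density at 490 nm is read. IC50 marks 50% cell growth inhibition.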
# [2] = system: K562 (chronic myeloid leukemia); assay: Cytotoxic MTS assay, K562
# Method in brief: as §1
# CCRF-CEM lymphoblasts = assay: Mitosis, pH3Ser10 antibody labeling, flow cytometry; conditions: 24 h
# Protocol: The effect of compounds on cell cycle distribution was determined to gain insights into the mechanism of its antiproliferative activity. […] For example, as compared with control, the percentage of cells in G2/M phases was increased by treatment with 5 × IC50 μM of compounds for 24 h (Table 4). […] As shown in (Table 4), there was a marked increase in the sub-G1 from 2.91 in untreated cells. 5-Bromo-2-deoxyuridine (BrDU) is incorporated into newly synthesized DNA, and 5-bromouridine (BrU) pulse labeling is therefore commonly used as a proliferation marker. Low BrDU and BrU incorporation into the DNA or RNA, respectively, of treated cells with all compounds at 5 × IC50 reflected inhibition of DNA and RNA synthesis, indicating irreversible apoptotic changes. The percentage of […] cells incorporating 5-bromouridine is proportional to the transcriptional activity of CCRF-CEM cells.
# CCRF-CEM cells were seeded at a density of 1 × 10^6 cells per one mL in 6-well plates (TTP) and were cultivated with compounds at concentrations corresponding to 1 × or 5 × IC50 value. Together with the compounds-treated cells, a vehicle-treated sample was harvested at the same time point. After 24 h, the cells were washed with cold phosphate-buffered saline (PBS) and fixed in 70% ethanol added dropwise and stored overnight at −20 °C. Afterward, cells were washed in hypotonic citrate buffer, treated with RNase (50 µg mL^−1), and stained with propidium iodide. Flow cytometry using a 488 nm single beam laser (Becton Dickinson) was used for measurement. The cell cycle was analyzed by the software ModFitLT (Verity), and apoptosis was measured in a logarithmic model expressing the percentage of the particles with propidium content lower than cells in the G0/G1 phase (<G1) of the cell cycle. Half of the sample was used for pH3Ser10 antibody (Sigma) labeling and subsequent flow cytometry analysis of the cells in mitosis.
# [3] = 5 × IC50 (second value of cell)
Structure (SMILES),IC50 [1] [µM],IC50 [2] [µM],"M (Mitosis Phospho-Histone3 (Ser10)), % of Total Cellular Populations (CCRF-CEM lymphoblasts; 1 × IC50 (first value of cell)) [%]","M (Mitosis Phospho-Histone3 (Ser10)), % of Total Cellular Populations (CCRF-CEM lymphoblasts; [3]) [%]"
"COc1ccc(OC)c(C(=O)OCCS(=O)(=O)c2cc[n+]([O-])c3cc(Cl)ccc23)c1 [Compound 65, 2-[(N-Oxide 7-chloroquinolin-4-yl)sulfonyl]ethyl-2,5-dimethoxybenzoate]",28.2,5.85,1,1.66
"COc1cc(OC)c(C(=O)OCCS(=O)(=O)c2cc[n+]([O-])c3cc(Cl)ccc23)cc1OC [Compound 66, 2-[(N-Oxide 7-chloroquinolin-4-yl)sulfonyl]ethyl-2,4,5-trimethoxybenzoate]",28,5.3,1.64,2.29
"Cc1ccc([N+](=O)[O-])c(C(=O)OCCS(=O)(=O)c2cc[n+]([O-])c3cc(Cl)ccc23)c1 [Compound 70, 2-[(N-Oxide 7-chloroquinolin-4-yl)sulfonyl]ethyl-5-methyl-2-nitrobenzoate]",28.2,6.1,1.57,1.08
"COc1ccccc1C(=O)OCCS(=O)(=O)c1cc[n+]([O-])c2cc(Cl)ccc12 [Compound 68, 2-[(N-Oxide 7-chloroquinolin-4-yl)sulfonyl]ethyl-2-methoxybenzoate]",27,4.72,1.73,2.11
"COc1ccc(C(=O)OCCS(=O)(=O)c2cc[n+]([O-])c3cc(Cl)ccc23)cc1 [Compound 63, 2-[(N-Oxide 7-chloroquinolin-4-yl)sulfonyl]ethyl-4-methoxybenzoate]",28.8,5.38,1.66,1.53
"O=C(OCCS(=O)(=O)c1cc[n+]([O-])c2cc(Cl)ccc12)c1ccc(C(F)(F)F)cc1 [Compound 72, 2-[(N-Oxide 7-chloroquinolin-4-yl)sulfonyl]ethyl-4-(trifluoromethyl)benzoate]",28.5,3.02,1.61,5.28
"COc1ccc(C(=O)OCCS(=O)(=O)c2cc[n+]([O-])c3cc(Cl)ccc23)cc1[N+](=O)[O-] [Compound 69, 2-[(N-Oxide 7-chloroquinolin-4-yl)sulfonyl]ethyl-4-methoxy-3-nitrobenzoate]",28.3,6.49,1.61,1.6
